Test system: HDAC4
Test: Improving action on expression of HDAC4 in UV-B-irradiated XP-A-iMCs (RT-PCR)
Format: cell-based, human
Details: XP-A-iMCs irradiated with high-dose (150 J/m^2) UV-B, compound then added to cell medium, cultured for 24 hours, DMSO control
Procedure: The XP-A-iMCs were seeded into a 60-millimeter dish, and were irradiated with high-dose (150 J/m^2) UV-B when the XP-A-iMCs became about 70% confluent. […] After that, the expression of HDAC4 was recognized by using a RT-PCR method.
The XP-A-iMCs were seeded into a 60-millimeter dish, and were irradiated with high-dose (150 J/m^2) UV-B when the XP-A-iMCs became about 70% confluent.

Compound: CC1=NN(c2ccc(C(=O)O)cc2)C(=O)C1=Cc1ccc(-c2cc(C)c(C)cc2[N+](=O)[O-])o1 [C-646]
- expression of HDAC4: significantly recovered

— patent EP4725505A1, “PROPHYLACTIC AND/OR THERAPEUTIC AGENT FOR SKIN DISORDER ASSOCIATED WITH HISTONE DEACETYLASE 4 ABNORMALITY” (National University Corporation Kobe University, priority 2023, dated 2025)
